{"source": "patent US20160378912A1", "about": "“STRUCTURE-BASED MODELING AND TARGET-SELECTIVITY PREDICTION” (EPIGENETX, LLC, priority 2013, published 2016)", "key": {"[1]": {"system": "HDAC isoforms", "test": "HDAC inhibition profiled over several HDAC isoforms (experimental)", "format": "biochemical, human"}, "[2]": {"system": "HDLP", "settings": "CTS; cited from earlier work"}, "[3]": {"target": "HIV-RT WT (Human immunodeficiency virus type 1 group M subtype B, UniProt P04585)", "settings": "Rotili et al. 2012; cited from earlier work"}, "[4]": {"target": "HIV-RT L100I (Human immunodeficiency virus type 1 group M subtype B, UniProt P04585, L687I)", "settings": "Rotili et al. 2012; cited from earlier work"}, "[5]": {"target": "HIV-RT K103N (Human immunodeficiency virus type 1 group M subtype B, UniProt P04585, K690N)", "settings": "Rotili et al. 2012; cited from earlier work"}, "[6]": {"target": "HIV-RT V106A (Human immunodeficiency virus type 1 group M subtype B, UniProt P04585, V693A)", "settings": "Rotili et al. 2012; cited from earlier work"}, "[7]": {"target": "HIV-RT Y181I (Human immunodeficiency virus type 1 group M subtype B, UniProt P04585, Y768I)", "settings": "Rotili et al. 2012; cited from earlier work"}, "[8]": {"target": "HIV-RT Y188L (Human immunodeficiency virus type 1 group M subtype B, UniProt P04585, Y775L)", "settings": "Rotili et al. 2012; cited from earlier work"}, "[9]": {"target": "HDAC4 (Homo sapiens, UniProt P56524)", "sequence (P56524 whole entry)": "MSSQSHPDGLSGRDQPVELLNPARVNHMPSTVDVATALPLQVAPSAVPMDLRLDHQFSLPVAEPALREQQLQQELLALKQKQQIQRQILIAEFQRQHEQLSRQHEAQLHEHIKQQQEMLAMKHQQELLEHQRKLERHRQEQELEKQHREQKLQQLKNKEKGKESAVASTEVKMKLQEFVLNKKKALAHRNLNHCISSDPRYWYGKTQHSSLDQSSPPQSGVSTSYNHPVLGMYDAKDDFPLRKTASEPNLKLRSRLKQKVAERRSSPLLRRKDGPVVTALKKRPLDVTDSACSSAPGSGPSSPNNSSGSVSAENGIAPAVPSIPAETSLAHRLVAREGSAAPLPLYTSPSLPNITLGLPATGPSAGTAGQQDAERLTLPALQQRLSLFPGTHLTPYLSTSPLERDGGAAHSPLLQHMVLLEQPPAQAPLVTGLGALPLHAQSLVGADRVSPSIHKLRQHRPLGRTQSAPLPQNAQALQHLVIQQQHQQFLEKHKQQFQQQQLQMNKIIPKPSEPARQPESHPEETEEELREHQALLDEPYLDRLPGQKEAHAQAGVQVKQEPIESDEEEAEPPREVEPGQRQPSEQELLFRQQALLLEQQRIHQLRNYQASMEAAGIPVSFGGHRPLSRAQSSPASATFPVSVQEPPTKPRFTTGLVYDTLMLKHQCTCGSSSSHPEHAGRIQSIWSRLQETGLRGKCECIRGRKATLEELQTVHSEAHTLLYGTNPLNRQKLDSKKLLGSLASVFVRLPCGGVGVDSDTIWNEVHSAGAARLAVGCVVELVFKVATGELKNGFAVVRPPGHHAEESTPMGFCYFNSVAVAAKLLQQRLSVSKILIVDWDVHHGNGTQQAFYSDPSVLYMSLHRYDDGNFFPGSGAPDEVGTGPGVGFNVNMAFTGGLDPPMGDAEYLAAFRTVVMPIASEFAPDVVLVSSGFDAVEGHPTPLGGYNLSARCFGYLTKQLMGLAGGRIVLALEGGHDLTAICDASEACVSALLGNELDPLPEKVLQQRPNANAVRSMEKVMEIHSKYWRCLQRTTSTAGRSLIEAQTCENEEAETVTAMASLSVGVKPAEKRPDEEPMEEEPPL", "settings": "MTS inhibitors; cited from earlier work"}, "[10]": {"target": "HDAC5 (Homo sapiens, UniProt Q9UQL6)", "sequence (Q9UQL6 whole entry)": "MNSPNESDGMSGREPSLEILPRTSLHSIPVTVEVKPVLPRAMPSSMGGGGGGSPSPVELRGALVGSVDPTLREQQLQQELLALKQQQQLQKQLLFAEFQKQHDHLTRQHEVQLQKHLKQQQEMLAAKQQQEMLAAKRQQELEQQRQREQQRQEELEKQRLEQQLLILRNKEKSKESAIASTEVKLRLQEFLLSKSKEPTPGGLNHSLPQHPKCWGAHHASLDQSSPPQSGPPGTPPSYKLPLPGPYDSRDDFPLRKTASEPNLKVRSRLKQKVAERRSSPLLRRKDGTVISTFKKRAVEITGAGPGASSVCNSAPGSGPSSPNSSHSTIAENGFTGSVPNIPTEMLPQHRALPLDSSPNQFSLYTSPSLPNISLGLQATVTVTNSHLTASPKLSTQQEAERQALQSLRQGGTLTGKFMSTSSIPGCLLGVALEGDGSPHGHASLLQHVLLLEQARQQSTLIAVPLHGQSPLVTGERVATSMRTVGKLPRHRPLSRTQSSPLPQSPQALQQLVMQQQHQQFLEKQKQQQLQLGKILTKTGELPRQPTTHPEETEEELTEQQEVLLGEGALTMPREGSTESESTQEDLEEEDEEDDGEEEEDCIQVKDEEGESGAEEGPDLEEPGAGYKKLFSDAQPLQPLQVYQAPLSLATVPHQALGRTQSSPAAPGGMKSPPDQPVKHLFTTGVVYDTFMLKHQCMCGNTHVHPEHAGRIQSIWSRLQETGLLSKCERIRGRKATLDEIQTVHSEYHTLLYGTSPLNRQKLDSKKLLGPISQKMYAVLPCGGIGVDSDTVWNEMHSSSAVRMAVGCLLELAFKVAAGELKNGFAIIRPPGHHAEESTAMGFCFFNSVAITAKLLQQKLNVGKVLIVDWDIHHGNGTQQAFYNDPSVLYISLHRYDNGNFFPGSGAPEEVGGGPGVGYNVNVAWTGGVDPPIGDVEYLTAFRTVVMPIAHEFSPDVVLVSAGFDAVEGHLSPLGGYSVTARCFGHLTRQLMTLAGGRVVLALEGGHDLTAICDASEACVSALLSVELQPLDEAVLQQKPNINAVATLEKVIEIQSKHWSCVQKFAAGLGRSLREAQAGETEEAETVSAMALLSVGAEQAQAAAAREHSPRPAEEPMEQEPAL", "settings": "MTS inhibitors, HDAC5; cited from earlier work"}, "[11]": {"target": "T1, HDAC7 (Homo sapiens, UniProt Q8WUI4)", "T1 sequence (Q8WUI4 1-952)": "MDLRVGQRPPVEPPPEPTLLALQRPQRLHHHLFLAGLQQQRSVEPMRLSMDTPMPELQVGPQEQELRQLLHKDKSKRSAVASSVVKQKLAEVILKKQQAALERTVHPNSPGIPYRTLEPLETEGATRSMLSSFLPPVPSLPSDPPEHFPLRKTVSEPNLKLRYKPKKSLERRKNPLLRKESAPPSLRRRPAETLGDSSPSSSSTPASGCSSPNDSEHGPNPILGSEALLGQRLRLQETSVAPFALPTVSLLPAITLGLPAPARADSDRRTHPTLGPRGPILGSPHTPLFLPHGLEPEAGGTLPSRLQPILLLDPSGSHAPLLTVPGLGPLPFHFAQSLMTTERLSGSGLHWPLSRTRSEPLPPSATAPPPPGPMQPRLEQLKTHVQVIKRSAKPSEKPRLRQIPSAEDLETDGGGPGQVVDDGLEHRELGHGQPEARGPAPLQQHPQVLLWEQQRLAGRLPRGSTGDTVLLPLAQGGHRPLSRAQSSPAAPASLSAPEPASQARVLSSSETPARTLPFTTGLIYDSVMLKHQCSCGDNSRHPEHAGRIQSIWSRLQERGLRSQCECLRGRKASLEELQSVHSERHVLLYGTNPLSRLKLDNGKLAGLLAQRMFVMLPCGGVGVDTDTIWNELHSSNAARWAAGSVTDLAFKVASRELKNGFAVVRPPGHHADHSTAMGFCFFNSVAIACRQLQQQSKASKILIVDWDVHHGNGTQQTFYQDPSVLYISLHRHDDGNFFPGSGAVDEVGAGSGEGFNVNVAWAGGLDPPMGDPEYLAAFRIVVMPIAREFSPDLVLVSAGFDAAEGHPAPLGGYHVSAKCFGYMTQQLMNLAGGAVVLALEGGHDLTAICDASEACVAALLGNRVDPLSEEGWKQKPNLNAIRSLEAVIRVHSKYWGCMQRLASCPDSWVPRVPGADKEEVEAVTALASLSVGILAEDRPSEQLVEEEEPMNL", "settings": "MTS inhibitors; cited from earlier work"}, "[12]": {"target": "HDAC9 (Homo sapiens, UniProt Q9UKV0)", "sequence (Q9UKV0 whole entry)": "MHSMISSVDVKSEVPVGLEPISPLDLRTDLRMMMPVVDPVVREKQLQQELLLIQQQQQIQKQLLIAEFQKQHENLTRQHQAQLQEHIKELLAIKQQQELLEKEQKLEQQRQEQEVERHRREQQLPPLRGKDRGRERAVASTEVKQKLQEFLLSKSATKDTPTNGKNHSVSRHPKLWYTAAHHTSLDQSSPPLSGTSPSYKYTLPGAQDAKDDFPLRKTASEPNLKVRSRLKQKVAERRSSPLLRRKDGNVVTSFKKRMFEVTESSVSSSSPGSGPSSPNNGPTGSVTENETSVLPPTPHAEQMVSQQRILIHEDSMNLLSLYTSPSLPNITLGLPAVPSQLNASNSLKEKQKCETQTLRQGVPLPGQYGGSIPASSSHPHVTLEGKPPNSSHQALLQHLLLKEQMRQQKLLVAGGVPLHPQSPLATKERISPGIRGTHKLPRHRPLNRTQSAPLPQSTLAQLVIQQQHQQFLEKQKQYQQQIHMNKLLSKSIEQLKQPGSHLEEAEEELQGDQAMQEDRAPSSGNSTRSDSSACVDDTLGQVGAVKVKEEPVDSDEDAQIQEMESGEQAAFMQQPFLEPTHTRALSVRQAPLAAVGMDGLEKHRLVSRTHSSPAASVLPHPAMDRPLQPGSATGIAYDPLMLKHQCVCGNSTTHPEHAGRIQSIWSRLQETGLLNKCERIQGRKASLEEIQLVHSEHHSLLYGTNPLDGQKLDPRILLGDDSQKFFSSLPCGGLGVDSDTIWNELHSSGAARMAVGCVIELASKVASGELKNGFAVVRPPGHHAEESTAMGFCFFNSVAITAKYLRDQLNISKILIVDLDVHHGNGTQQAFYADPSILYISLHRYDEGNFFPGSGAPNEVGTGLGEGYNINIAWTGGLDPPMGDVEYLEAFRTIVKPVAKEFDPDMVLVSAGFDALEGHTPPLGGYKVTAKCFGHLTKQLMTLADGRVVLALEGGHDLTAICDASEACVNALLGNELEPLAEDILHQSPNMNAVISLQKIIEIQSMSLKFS", "settings": "MTS inhibitors; cited from earlier work"}}, "data": [{"compound": "CC(/C=C/C(=O)NO)=C\\[C@H](C)C(=O)c1ccc(N(C)C)cc1", "note": "(stereo in doubt) [TSA, 7-(4-(Dimethylamino)phenyl)-N-hydroxy-4,6-dimethyl-7-oxo-2,4-heptadienamide]", "values": [{"measurement": "Bioactivity range (ΔpIC50) DpIC50", "setting": "[1]; range of pIC50 over the profiled HDAC isoforms", "result": 2.34}, {"measurement": "Experimental pIC50", "setting": "[2]", "result": 6.40}, {"measurement": "IC50", "setting": "[2]", "result": 400, "unit": "nM"}]}, {"compound": "C/C=C/N(C)c1nc([C@H](C)c2c(F)cccc2F)c(C)c(=O)[nH]1", "note": "[(R)-MC1501]", "values": [{"measurement": "Experimental activity (pKi), Exp", "setting": "[3]", "result": 8.70}, {"measurement": "Experimental activity (pKi), Exp", "setting": "[4]", "result": 7.02}, {"measurement": "Experimental activity (pKi), Exp", "setting": "[5]", "result": 7.02}, {"measurement": "Experimental activity (pKi), Exp", "setting": "[6]", "result": 8.52}, {"measurement": "Experimental activity (pKi), Exp", "setting": "[7]", "result": 6.35}, {"measurement": "Experimental activity (pKi), Exp", "setting": "[8]", "result": 6.71}]}, {"compound": "Cc1c(N)nc(Nc2ccc(C#N)cc2)nc1[C@H](C)c1c(F)cccc1F", "note": "[(R)-MC2082]", "values": [{"measurement": "Experimental activity (pKi), Exp", "setting": "[3]", "result": 6.81}, {"measurement": "Experimental activity (pKi), Exp", "setting": "[4]", "result": 8.10}, {"measurement": "Experimental activity (pKi), Exp", "setting": "[5]", "result": 8.52}, {"measurement": "Experimental activity (pKi), Exp", "setting": "[6]", "result": 9.52}, {"measurement": "Experimental activity (pKi), Exp", "setting": "[7]", "result": 6.12}, {"measurement": "Experimental activity (pKi), Exp", "setting": "[8]", "result": 8.10}]}, {"compound": "C/C=C/N(C)c1nc([C@@H](C)c2c(F)cccc2F)c(C)c(=O)[nH]1", "note": "[(S)-MC1501]", "values": [{"measurement": "Experimental activity (pKi), Exp", "setting": "[3]", "result": 6.93}, {"measurement": "Experimental activity (pKi), Exp", "setting": "[4]", "result": 4.40}, {"measurement": "Experimental activity (pKi), Exp", "setting": "[5]", "result": 6.01}, {"measurement": "Experimental activity (pKi), Exp", "setting": "[6]", "result": 6.45}, {"measurement": "Experimental activity (pKi), Exp", "setting": "[7]", "result": 4.40}, {"measurement": "Experimental activity (pKi), Exp", "setting": "[8]", "result": 4.40}]}, {"compound": "Cc1c(N)nc(Nc2ccc(C#N)cc2)nc1[C@@H](C)c1c(F)cccc1F", "note": "[(S)-MC2082]", "values": [{"measurement": "Experimental activity (pKi), Exp", "setting": "[3]", "result": 4.52}, {"measurement": "Experimental activity (pKi), Exp", "setting": "[4]", "result": 6.74}, {"measurement": "Experimental activity (pKi), Exp", "setting": "[5]", "result": 7.19}, {"measurement": "Experimental activity (pKi), Exp", "setting": "[6]", "result": 6.62}, {"measurement": "Experimental activity (pKi), Exp", "setting": "[7]", "result": 6.29}, {"measurement": "Experimental activity (pKi), Exp", "setting": "[8]", "result": 4.40}]}, {"compound": "O=C(O)CCCc1ccccc1", "note": "[MCL-3]", "values": [{"measurement": "average pIC50 value, Exp.", "setting": "[1]; average over HDAC isoforms, MTS", "result": 3.40}, {"measurement": "Exp. pIC50", "setting": "[9]", "result": 2.70}, {"measurement": "Exp. pIC50", "setting": "[10]", "result": 2.70}, {"measurement": "Exp. pIC50", "setting": "[11]", "result": 2.70}, {"measurement": "Exp. pIC50", "setting": "[12]", "result": 2.70}]}]}
